Assay [1] has as its target T1, pertussis toxin (Bordetella pertussis, UniProt P04977). The assay can be described thus: Inactivation of NADase activity by sulfhydryl reagents, 6 minutes or 18 hours at 0-4° (Example Eight). It counts as biochemical. As for the experimental part:
(§1) Pertussis toxin was incubated at 37° C. for fifteen minutes as described in Example Six, and then a second incubation was begun by adding 10 μl buffer A with or without 12.5 mM iodoacetate, mixing the contents of the tube and lowering the temperature to 30° C. After fifteen minutes, the tubes were shifted to an ice bath for ten minutes. A third incubation was then begun by adding 10 μl buffer A containing 200 mM DTT to those tubes containing iodoacetate to scavenge the iodoacetate. To those tubes not containing iodoacetate during the second incubation, a mixture of 200 mM DTT and 12.5 mM iodoacetate in buffer A, previously incubated for an hour on ice, was added. The third incubation was continued for one hour on ice.
(§2) The contents of each tube were then assayed for NADase activity by adding 40 μl of a reaction mix consisting of buffer A containing carbon-14 labelled NAD (final concentration in the 100 μl final volume was 25 μM), and 50 mM sodium chloride. Different reaction mixtures with various additions were used, so that in all tubes the final concentration of ATP was 1 mM and CHAPS was 1 weight percent. The assay was conducted at 37° C. for sixty minutes, and the released labelled nicotinimide was isolated and counted. The iced controls were formed by incubating pertussis toxin (1 μg) on ice in 10 mM sodium phosphate (pH 7) and 50 mM sodium chloride during the first three incubations. […] The first three incubations were done under a nitrogen atmosphere using degassed conditions, and the second and third incubations were done under subdued light.
The procedure followed in Example Seven was repeated for this study, except that N-ethylmaleimide, chloroacetamide or chloroacetate were substituted for iodoacetate. After the 30° C. incubation, the tubes were either incubated for six minutes or eighteen hours at 0°-4° C. before the 10 μl of 200 mM DTT (with or without quenched reagent) was added. Those tubes receiving the DTT after six minutes were incubated for nineteen hours at 0°-4° C. prior to the NADase assay. Those receiving the DTT after eighteen hours were incubated with DTT for one hour, as in Example Seven. The tubes were then assayed for NADase activity at the same time.

The target in assay [2] is T1, pertussis toxin. Nature of the assay: Inactivation of NADase activity by iodoacetate after different activator combinations (Example Seven). The class given is biochemical. As for the experimental part: Pertussis toxin was incubated first at 37° C. for fifteen minutes in […] buffer A (100 mM Tris-HCl, pH 8.0 with 1 mM NaEDTA). EDTA was added to chelate divalent cations, which may promote oxidation of free --SH groups. During this incubation, DTT and ATP were present in concentrations of 1 mM each, and CHAPS was present in a concentration of 1 weight percent. Labelled iodoacetate was then added ([…], 12.5 mM), and the tube incubated on ice for twenty hours. The sample was then mixed with sodium dodecylsulfate and β-mercaptoethanol, heated at 95° C. for one minute, and electrophoresed. After electrophoresis, the gel was fixed, treated with Fluorohance (Research Products International), dried and used to expose x-ray film.
as §1, §2

[3] abbreviates: first incubation: ATP, CHAPS, 18 hours at 0-4°.
The mark [4] stands for this setting: first incubation: ATP, DTT, CHAPS, 6 minutes at 0-4°.
[5] abbreviates: first incubation: ATP, DTT, CHAPS, 18 hours at 0-4°.
Setting [6] is: first incubation: CHAPS, 18 hours at 0-4°.
[7] abbreviates: first incubation: DTT, CHAPS, 18 hours at 0-4°.
Where [8] appears, read: first incubation: none, 15 minutes at 30° C. followed by 18 hours at 0-4°.

T1 sequence (P04977 35-269 limits assumed): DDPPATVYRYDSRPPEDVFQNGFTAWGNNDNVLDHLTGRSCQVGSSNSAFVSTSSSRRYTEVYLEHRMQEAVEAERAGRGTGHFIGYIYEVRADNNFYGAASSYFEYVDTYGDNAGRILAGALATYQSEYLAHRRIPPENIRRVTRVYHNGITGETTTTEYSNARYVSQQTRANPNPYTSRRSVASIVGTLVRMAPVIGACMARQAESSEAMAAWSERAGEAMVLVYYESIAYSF

In the case of `O=C(O)CI` [iodoacetate], the NADase activity in assay [1] (setting [3]) is 110 pmol per μg per hour; in assay [1] (setting [4]), 17 pmol per μg per hour; in assay [1] (setting [5]) it was 3 pmol per μg per hour; in assay [1] (setting [6]), 171 pmol per μg per hour; in assay [1] (setting [7]), 151 pmol per μg per hour; in assay [1] (setting [8]), 59 pmol per μg per hour. Also, the “percent of activity with no addition to second incubation” value in assay [1] (setting [3]) amounted to 85%; in assay [1] (setting [4]), 17%; in assay [1] (setting [5]) it was 3%; in assay [1] (setting [6]), 92%; in assay [1] (setting [7]), 79%; in assay [1] (setting [8]) it was 116%. For the same molecule, the “Time to inactivate toxin” value in assay [2] (at 30° C.) is given as “within about fifteen minutes”. Moreover, the “Percent NADase activity relative to no addition to second incubation” value in assay [2] (first incubation: ATP) is 153; in assay [2] (first incubation: ATP, CHAPS), 80; in assay [2] (first incubation: ATP, DTT), 107; in assay [2] (first incubation: ATP, DTT, CHAPS) it was 14; in assay [2] (first incubation: CHAPS) it was 108; in assay [2] (first incubation: DTT), 123. The “Percent NADase activity relative to no addition to second incubation” value in assay [2] (first incubation: DTT, CHAPS) was 84; in assay [2] (first incubation: none), 87.

The values are drawn from patent US5032398A, “Selective modification of the catalytic subunit of pertussis toxin” (priority 1986, dated 1991).
